The text below walks through data of patent US20230346820A1, “METHODS AND COMPOSITIONS FOR THE TREATMENT OF SARS-COV-2” (priority 2020, published 2023).

Read-outs that look alike come from different tables or passages of the source.

The conditions of series [1]: human, oral; cited from earlier work.
The subject of series [2] is SARS-CoV-2. Put plainly: Checkerboard synergy study with remdesivir (ZIP model, synergyfinder). In kind it is cell-based.
A further series in a line: in vitro. As to conditions: human.
Series [3] concerns SARS-CoV-2. Put plainly: Time of addition (TOA) assay in HeLa-ACE2 cells. The format is cell-based. The settings on record: for activity when treatment initiated at 1 hpi: 10 μM, HeLa-ACE2, time course 4 to 24 hpi.
Series [4] concerns SARS-CoV-2.
For series [5] the following is noted: in vivo; cited from earlier work.
In series [6] the test system is SARS-CoV-2. This is another data set of the same source.
Series [7] relates to SARS-CoV-2. Kind of series: microbe, parasite or virus in culture.
For series [8] the following is noted: rat, oral; cited from earlier work.
For series [9] the following is noted: mouse, cited from earlier work.
The test system of series [10] is HeLa-ACE2 cells. Kind of series: cells. In kind it is cell-based, human. The settings on record: Homo sapiens, HeLa-ACE2, read-out: HeLa-ACE-2 EC50 [μM] (Geomeans, n ≥ 2).
For series [11] the following is noted: COVID-19 patients; shortened from 15; cited from earlier work.
The test system of series [12] is SARS-CoV-2. Kind of series: SARS-CoV-2 primary ALI HBEC model. In kind it is cell-based. The settings on record: apical washes 72 hpi. Here is the method:
SARS-CoV-2 primary ALI HBEC model. Normal primary human bronchial epithelial cells (HBECs) (Lonza) were cultured in Millicell-96 cell culture insert plates with 1 μm PET filters (Sigma) at an air liquid interface for at least 4 weeks using PneumaCult™-ALI Medium (Stemcell Technologies). Briefly, the HBECs were first expanded in cell culture flasks before seeding 10,000 cells per well submerged in PneumaCult™-Ex Plus Medium. After 1 week, the cells were switched into PneumaCult™-ALI Medium and medium was removed from the apical surface. The air liquid interface was maintained, and the medium exchanged every 2-3 days for at least 4 weeks to allow for differentiation of the cells. Prior to infection, the apical surface was rinsed once with DPBS and compounds were added to the basolateral chamber. 20,000 PFU SARS-CoV-2 strain USA-WA1/2020 were added to the apical surface in 50 μL PBS and allowed to incubate for 2 h. The inoculum was then removed, and the cells rinsed once with DPBS. The medium was exchanged, and fresh compound added at 24 and 48 h post-infection. Apical washes were collected at 72 h post-infection by adding 100 μL DPBS to the apical surface for 15 minutes. RNA was isolated from the apical washes using the PureLink™ Pro 96 Viral RNA/DNA Purification Kit (Thermo Fisher) and analyzed for viral RNA levels by RT-qPCR using the SuperScript™ III Platinum™ One-Step qRT-PCR Kit (Thermo Fisher) and the 2019-nCoV N1 CDC Primers and Probe set (Integrated DNA Technologies). A standard curve was generated by isolating RNA from serial dilutions of the stock virus and used to determine the PFU equivalents/mL for each sample. The viral load reductions were then determined for each experimental compound treatment compared to the neutral DMSO control and plotted in log scale. Cytotoxicity was assessed by measuring LDH activity in the basolateral media using a Cytotoxicity Detection kit (LDH) (Sigma) following the manufacturer's instructions. […] Technical triplicates were run for both antiviral and cytotoxicity readouts. […]

Series [13] has as its system HeLa-ACE2 cells. The settings on record: human.
For series [14], the system named is SARS-CoV-2. Put plainly: microbe, parasite or virus in culture. The settings on record: Severe acute respiratory syndrome coronavirus 2, Calu-3, read-out: Calu-3 SARS-CoV-2 EC50.
Series [15] is described as follows: Pharmacokinetic studies in Syrian hamsters. The settings on record: single 500 mg/kg PO dose, hamster plasma. The format is in vivo. Here is the method: Pharmacokinetic Studies. Pharmacokinetic studies were conducted at Scripps Research Institute's Animal Models Core in accordance with IACUC guidelines (IACUC Protocol #09-0004-5). Eight-week old male Syrian Hamsters (Charles River) (three per group) were dosed PO as indicated for each compound and formulation. Plasma concentration of each test article was monitored up to 48 h. Nelfinavir was formulated in 10% DMSO/90% corn oil and MK-4482 was formulated in 10% PEG400/2.5% Cremaphor RH40 for both pharmacokinetic and efficacy studies.

Series [16] has as its system SARS-CoV-2. Kind of series: Golden Syrian Hamster SARS-CoV-2 efficacy model. The format is in vivo. As to conditions: for live viral titers in the lungs: day 5, plaque assay.
The conditions of series [17]: dog, oral; cited from earlier work.
[18] abbreviates: CC50 [μM] (Geomeans, n ≥ 2 except where indicated: *n = 1).
Where [19] appears, read: Severe acute respiratory syndrome coronavirus 2, HeLa-ACE2, 24 h, read-out: CoV-2 EC50 [μM] (Geomeans, n ≥ 2).
Setting [20] is: Severe acute respiratory syndrome coronavirus 2, HeLa-ACE2, read-out: SARS CoV-2 EC50 (μM).

As to `CCN(CCO)CCCC(C)Nc1ccnc2cc(Cl)ccc12` (stereo not drawn) [hydroxychloroquine, nasal, hydroxychloroquine], the maximum concentration (Cmax) in series [1] is around 1700 nM. Also, in series [1], the t1/2 is recorded as ~55 h (human oral)(18). The “Synergy score with remdesivir (δ)” value in the series with SARS-CoV-2 [2] (Table 3) is −1.572. In addition, the CC50 in “in vitro” (setting [18]) and in “in vitro” (Uninfected HeLa-ACE2 CC50 (μM)) was above 18.3 µM in each case. In addition, the “classification as entry inhibitor in HeLa-ACE2 cells” value in the series on SARS-CoV-2 [3] was “entry inhibitors”. In addition, in the series with SARS-CoV-2 [3], the “activity when treatment initiated at 1 hpi” value is on record as “Loss of activity”. The “HeLa-ACE2 CC50/CoV-2 EC50” value with SARS-CoV-2 [4] is recorded as above 40.04. Also, in series [5], the “mortality of hospitalized COVID-19 patients” value was “failed to reduce mortality”. For the same compound, the “activity in Calu-3 infection assay” value in the series with SARS-CoV-2 [6] is “not active”. Besides, the EC50 in the series with SARS-CoV-2 [7] (setting [19]) and with SARS-CoV-2 [7] (setting [20]) was 0.458 µM throughout.

In turn, `COc1cc(-n2cnc3cc(-c4ccc(Cl)cc4)sc3c2=O)ccc1OCCN1CCCC1` [GW-803430] came in with a CC50 in “in vitro” (setting [18]) of 18.9 µM. The Cmax in [8] was around 585 nM. Moreover, the “HeLa-ACE2 CC50/CoV-2 EC50” value in the series on SARS-CoV-2 [4] is 11.16. Moreover, the t1/2 in series [9] is given as ~11 h (mouse)(38). Further, the half-maximal effective concentration (EC50) with SARS-CoV-2 [7] (setting [19]) turned out to be 1.7 µM.

Regarding `CCC(CC)COC(=O)[C@H](C)N[P@](=O)(OC[C@H]1O[C@@](C#N)(c2ccc3c(N)ncnn23)[C@H](O)[C@@H]1O)Oc1ccccc1` [Remdesivir], the Cmax in series [1] is around 5000 nM. Further, the t1/2 in series [1] is reported as ~1 h (human oral)(15). The values for the CC50 in the series “in vitro” (Uninfected HeLa-ACE2 CC50 (μM)), in “in vitro” (uninfected HeLa-ACE2 CC50) and in the series on HeLa-ACE2 cells [13] were above 8.46 µM, above 40 µM and 9.97 µM, respectively. For the same compound, the EC50 was above 9.6 µM in the series on HeLa-ACE2 cells [10]; 0.3 µM in the series with SARS-CoV-2 [4] (read-out: SARS-CoV-2 EC50); 0.444 µM in the series with SARS-CoV-2 [14]; 0.127 µM with SARS-CoV-2 [7] (setting [19]); 0.127 µM in the series on SARS-CoV-2 [7] (setting [20]); 0.194 ± 0.02 µM in the series with SARS-CoV-2 [7] (Severe acute respiratory syndrome coronavirus 2, HeLa-ACE2, read-out: SARS-CoV-2 EC50). The “activity when treatment initiated at 1 hpi” value with SARS-CoV-2 [3] was “effectively blocked the infection”. Further, the “HeLa-ACE2 CC50/CoV-2 EC50” value with SARS-CoV-2 [4] was 78.7. Also, the “increase in EC50 from MOI=1 to MOI=26” value with SARS-CoV-2 [4] is given as 2.7 fold. Moreover, the “median time to recovery” value in series [11] is listed as 11 days. For the same compound, the “mortality of hospitalized COVID-19 patients” value in [5] is listed as “failed to reduce mortality”. The “viral replication in ALI-HBECs” value in the series with SARS-CoV-2 [12] is “inhibited viral replication”.

As for `CCN1CCC(c2cc(C)c3nc(-c4cc5c(C)nc(C)cn5n4)cc(=O)n3c2)CC1` [SMN-C3], the “Synergy score with remdesivir (δ)” value is reported as −0.365 in the series on SARS-CoV-2 [2] (Table 1, ZIP model, δ>10 synergy, δ<−10 antagonism, between additive) and −0.37 in the series with SARS-CoV-2 [2] (Table 3). Besides, the CC50 in the series “in vitro” (setting [18]) and in the series “in vitro” (Uninfected HeLa-ACE2 CC50 (μM)) was 7.16 µM throughout. Besides, the EC50 in the series on HeLa-ACE2 cells [10] is above 8.14 µM; in the series with SARS-CoV-2 [7] (setting [19]), 1.4 µM; in the series with SARS-CoV-2 [7] (setting [20]), 1.4 µM. In the series with SARS-CoV-2 [4], the “HeLa-ACE2 CC50/CoV-2 EC50” value is listed as 5.12. The Cmax in [9] (oral) was around 2000 nM.

In the case of `CC(C)C(=O)OC[C@H]1O[C@@H](n2ccc(NO)nc2=O)[C@H](O)[C@@H]1O` [MK-4482/EIDD-2801/Molnupiravir, Molnupiravir], the “time over HeLa-ACE2 and Calu-3 EC50” value in series [15] is reported as at least 7 h. Further, the “viral reduction compared to vehicle control” value in the series on SARS-CoV-2 [16] (50 mg/kg PO BID, day 5) is on record as 99%. Moreover, the “live viral titers in the lungs” value with SARS-CoV-2 [16] (150 mg/kg PO BID) is “undetectable”. Also, in the series on SARS-CoV-2 [16] (500 mg/kg PO BID), the “host immune response (RNA Seq on hamster lungs)” value is reported as “near-complete protection from host immune response” and the “live viral titers in the lungs” value was “undetectable”. Also, the lung histological examination entry in the series on SARS-CoV-2 [16] (MK-4482-treated hamsters vs vehicle) is on record as “protected”. In the series “in vitro” (setting [18]), the CC50 is above 39.8 µM. In the series on SARS-CoV-2 [4], the “HeLa-ACE2 CC50/CoV-2 EC50” value is above 4.21 and the “activity in HeLa-ACE2 infection assay” value was “not active”. Also, the half-maximal effective concentration (EC50) in the series with SARS-CoV-2 [7] (setting [19]) was above 9.45 µM.

With `O=S(=O)(Nc1ccc(CCNC[C@H](O)c2cccnc2)cc1)c1ccc(-c2nc(-c3ccc(C(F)(F)F)cc3)cs2)cc1` [L 796568], the CC50 in the series “in vitro” (setting [18]) and in “in vitro” (Uninfected HeLa-ACE2 CC50 (μM)) was 5.51 µM throughout. Moreover, the EC50 in the series on HeLa-ACE2 cells [10] worked out at 3.14 µM; with SARS-CoV-2 [7] (setting [19]), 1.04 µM; in the series on SARS-CoV-2 [7] (setting [20]), 1.04 µM. Further, the “HeLa-ACE2 CC50/CoV-2 EC50” value with SARS-CoV-2 [4] is given as 5.28. Further, in series [17], the Cmax is around 300 nM. In addition, the t1/2 in [17] is reported as ~14 h (dog, oral)(32).

As to `Cc1c(O)cccc1C(=O)N[C@@H](CSc1ccccc1)[C@H](O)CN1C[C@H]2CCCC[C@H]2C[C@H]1C(=O)NC(C)(C)C` [nelfinavir], the “time over Calu-3 SARS-CoV-2 EC50” value in [15] was around 3 h. Besides, the “protection from weight loss and viral replication” value with SARS-CoV-2 [16] (500 mg/kg PO BID) was “failed to protect animals from weight loss and viral replication”.
